Data as given in PMC12455572, “Amphipathic Proline-Rich Cell Penetrating Peptides for Targeting Mitochondria” (ACS Chemical Biology, 2025).

Tested on: MCF-7 cells
Assay: Flow cytometry at 4 °C versus 37 °C
Format: cell-based
Details: MCF-7, 20 µM, 1 h
Experimental: MCF-7 cells were seeded in a 24-well plate at 150′000 cells/well in DMEM (1 mL, 10% FCS), and allowed to adhere overnight. The medium was removed, the cells were washed with PBS (250 μL, 1x) and incubated with the peptide solution at 20 μM, 10 μM, 5 μM or 2.5 μM in medium (200 μL, 1% FCS) for 1 h at 37 °C. The medium was removed, and the cells were washed with PBS (250 μL, 2x). Trypsin (100 μL, 0.05%) was added, and the cells were incubated at 37 °C for 5 min. D-PBS with Mg^2+ and Ca^2+ (300 μL, 4 °C) was added, the cells were resuspended and centrifuged for 5 min at 0.4 rcf. The supernatant was carefully removed, and the cells were resuspended in a solution of PBS containing 1.5 μM PI and 2 mM EDTA (400 μL at 4 °C). […] Each sample contained 10′000 cells and was analyzed in triplicate. […]
Figure S9. […] After 1 h incubation at 4 °C, the fluorescence signal is in case of most of the peptides lower, indicating an endocytosis pathway. […]
of different entry mechanisms. The indicated P-values were determined using one-way ANOVA followed by Tukey’s […]
(also on this page, place not known: µM µM °C µM °C (ChaZZ) µM °C (ChaZZ) µM °C (ChaZZ) µM °C 20000Mean fluorescence intensity (ChaZZ)3 °CCells °C (ChaZZ) µM °C (ChaZZ) µM °C (ChaZZ) 3-Cha µM °C (ChaZZ) 3-Cha µM °C (ChaZZ) 3-Cha µM °C (ChaZZ) 3-Cha µM °C (ChaZZ) 3-Cha µM °C (ChaZZ) 3-Cha µM °C 30000Mean fluorescence intensity)

**Q.** Which “Fluorescence signal after incubation at 4 °C compared with 37 °C (FACS)” value does the source give for CF-Ahx-(ChaZZ)3-NH2 here?
**A.** Its value is “close-to-level signal”.
